Laboratory results reported in patent publication US12565488B2, “Inhibitors of influenza virus replication” (COCRYSTAL PHARMA, INC., priority 2018, dated 2026).

test system: Influenza type A (strain A/PR/8/34, ATCC VR-95); assay: Influenza antiviral assay: inhibition of virus-induced cytopathic effects (CPE) in MDCK cells, XTT dye reduction; type: cell-based; settings: Influenza A (H1N1) replication in MDCK cells, CPE reduction by XTT at 4 days post-infection; read-out: Influenza H1N1 affinity, EC50

SMILES | EC50
O=C(NCC1c2ccccc2COc2ccccc21)c1c(O)c(=O)ccn1CC1c2ccccc2COc2ccccc21 (centres unmarked) [Compound 50] | 1 to 10 µM
O=C(NCC1c2ccccc2COc2ccccc21)c1c(O)c(=O)ccn1CC1c2ccccc2COc2ccccc21 (centres unmarked) [Compound 108] | 1 to 10 µM
O=C(NCC1c2ccccc2COc2ccccc21)c1c(O)c(=O)ccn1CC1c2ccccc2COc2ccccc21 (centres unmarked) [Compound 102] | > 100 µM

same assay, conditions: Influenza A virus, H1N1 / PR/8, MDCK, 96 h, Influenza A (H1N1) replication in MDCK cells, CPE reduction by XTT at 4 days post-infection; read-out: Influenza H1N1 affinity, EC50

SMILES | EC50
CNC(=O)c1c(O)c(=O)ccn1N(Cc1ccccc1)C1c2ccccc2COc2ccccc21 (centres unmarked) [Compound 72] | > 100 µM
CN(C(c1ccccc1)c1ccccc1)n1ccc(=O)c(O)c1 [Compound 39] | > 100 µM
O=C(NCc1cccc(O)c1)c1c(O)c(=O)ccn1NC1c2ccccc2COc2ccccc21 (centres unmarked) [Compound 29] | > 100 µM
O=C(O)c1c(O)c(=O)ccn1NC1c2ccc(-c3ccccc3)cc2SCc2c1ccc(F)c2F (centres unmarked) [Compound 114] | 10 to 100 µM
O=C(O)c1c(O)c(=O)ccn1NC1c2ccccc2SCc2c1ccc(Cl)c2Cl (centres unmarked) [Compound 94] | 0.1 to 1 µM
O=C(Nc1cccc(O)c1)c1c(O)c(=O)ccn1NC1c2ccccc2COc2ccccc21 (centres unmarked) [Compound 19] | > 100 µM
CN(C1c2ccccc2COc2ccccc21)n1ccc(=O)c(O)c1C(=O)NCc1ccccc1 (centres unmarked) [Compound 18] | > 100 µM
O=c1ccn(NC2c3ccccc3SCc3c2ccc(F)c3F)cc1O (centres unmarked) [Compound 43, 1-((7,8-difluoro-6,11-dihydrodibenzo[b,e]thiepin-11-yl)amino)-3-hydroxypyridin-4(1H)-one] | > 100 µM
O=C(O)c1c(O)c(=O)ccn1NC1c2ccccc2CSc2cc(Cl)c(Cl)cc21 (centres unmarked) [Compound 77] | 10 to 100 µM
O=C(Nc1ccc(O)cc1)c1c(O)c(=O)ccn1NC1c2ccccc2COc2ccccc21 (centres unmarked) [Compound 20] | > 100 µM
O=C(O)c1c(O)c(=O)ccn1NC(c1ccccc1)c1ccc2ccccc2c1 (centres unmarked) [Compound 82] | 10 to 100 µM
O=C(O)c1c(O)c(=O)ccn1NC1c2ccccc2COc2cc(Cl)c(Cl)cc21 (centres unmarked) [Compound 60] | 10 to 100 µM
O=C(Nc1ccccc1)c1c(O)c(=O)ccn1CC1c2ccccc2COc2ccccc21 (centres unmarked) [Compound 49] | > 100 µM
O=C(O)c1cn(NC2c3ccccc3COc3ccccc32)c(C(=O)O)c(O)c1=O (centres unmarked) [Compound 109] | 10 to 100 µM
O=C(O)c1c(O)c(=O)ccn1NC1c2ccc(F)c(F)c2CSc2c(-c3ccc(F)cc3)cccc21 (centres unmarked) [Compound 122] | > 100 µM
CN(C1c2ccccc2COc2ccccc21)n1ccc(=O)c(O)c1C(=O)Nc1ccccc1 (centres unmarked) [Compound 34] | > 100 µM
O=C(Nc1ccc2ccccc2c1)c1c(O)c(=O)ccn1NC1c2ccccc2COc2ccccc21 (centres unmarked) [Compound 47] | > 100 µM
O=C(O)c1c(O)c(=O)ccn1NC(c1ccccc1)c1ccccc1 [Compound 67] | > 100 µM

SMILES | EC50
O=C(Nc1cccc(-c2ccccc2)c1)c1c(O)c(=O)ccn1NC1c2ccccc2COc2ccccc21 (centres unmarked) [Compound 30] | > 100 µM
O=C(O)c1c(O)c(=O)ccn1NC(c1ccc2ccccc2c1)c1ccc2ccccc2c1 [Compound 100] | > 100 µM
O=C(NCc1ccccc1)c1c(O)c(=O)ccn1CC1c2ccccc2COc2ccccc21 (centres unmarked) [Compound 51] | > 100 µM
CNC(=O)c1c(O)c(=O)ccn1CC1c2ccccc2COc2ccccc21 (centres unmarked) [Compound 52] | > 100 µM
O=C(Nc1ccc(-c2ccccc2)cc1)c1c(O)c(=O)ccn1NC1c2ccccc2COc2ccccc21 (centres unmarked) [Compound 36] | > 100 µM
NC(=O)c1c(O)c(=O)ccn1NC1c2ccccc2SCc2c1ccc(F)c2F (centres unmarked) [Compound 127] | 1 to 10 µM
O=C(O)c1c(O)c(=O)ccn1NC1c2ccccc2OCc2c1ccc(Cl)c2Cl (centres unmarked) [Compound 99] | 1 to 10 µM
O=C(O)c1c(O)c(=O)ccn1NC1CCCOc2ccccc21 (centres unmarked) [Compound 1] | 10 to 100 µM
CNC(=O)c1c(O)c(=O)ccn1N(C)C1c2ccccc2COc2ccccc21 (centres unmarked) [Compound 25] | > 100 µM
O=C(O)c1c(O)c(=O)ccn1NC1c2ccc(F)c(F)c2CSc2c1ccc(F)c2F (centres unmarked) [Compound 93] | 1 to 10 µM
O=C(O)c1c(O)c(=O)ccn1NC1c2ccc(F)c(F)c2CSc2c(-c3ccccc3)cccc21 (centres unmarked) [Compound 121] | > 100 µM
O=C(O)c1c(O)c(=O)ccn1NC1c2ccccc2SCc2c1cccc2N1CCCC1=O (centres unmarked) [Compound 128] | 1 to 10 µM
O=C(O)c1c(O)c(=O)ccn1NC1c2cc(OC(F)(F)F)ccc2SCc2c1ccc(F)c2F (centres unmarked) [Compound 116] | 10 to 100 µM
O=C(O)c1c(O)c(=O)ccn1NC1c2ccc(C(F)(F)F)cc2COc2cc(C(F)(F)F)ccc21 (centres unmarked) [Compound 110] | > 100 µM
O=C(O)c1c(O)c(=O)ccn1NC(c1ccc(F)c(F)c1)c1ccc(F)c(F)c1 [Compound 105] | > 100 µM
O=C(O)c1c(O)c(=O)ccn1NC1c2ccccc2S(=O)(=O)Cc2c1ccc(F)c2F (centres unmarked) [Compound 126] | 10 to 100 µM
CNC(=O)c1c(O)c(=O)ccn1NC1CCCN(C)c2ccccc21 (centres unmarked) [Compound 46] | > 100 µM
